Values of other authors as cited in PubChem BioAssay AID1259409 (Chemical Carcinogenesis Research Information System (CCRIS), 2018).

Tested on: rodent chemically induced tumor inhibition, incidence and multiplicity
Experiment: CCRIS tumor inhibitor studies
Details: Dose [Inhibitor]: 0, Route [Inhibitor]: ORAL

## Oc1ccccc1O
Carcinogen: N-BIS(2-HYDROXYPROPYL)NITROSAMINE, 53609-64-6, 0.8% IN DIET FOR 30 WK BEGINNING POST CARCINOGEN TREATMENT (STUDY DURATION: 32 WK), Species: RAT, Strain/Sex: F344/MALE, Target Tissue: Type of Lesion: KIDNEY: PAPILLOMA OR TRANSITIONAL CELL CARCINOMA, Dose [Carcinogen]: 0.1% IN DRINKING WATER FOR 2 WK, Promoter: NONE USED
  tumour outcome (control, treated, inhibition, significance): 10%, 10%, 0%, not significant
Carcinogen: N-BIS(2-HYDROXYPROPYL)NITROSAMINE, 53609-64-6, 0.8% IN DIET FOR 30 WK BEGINNING POST CARCINOGEN TREATMENT (STUDY DURATION: 32 WK), Species: RAT, Strain/Sex: F344/MALE, Target Tissue: Type of Lesion: LUNG: ADENOMA, Dose [Carcinogen]: 0.1% IN DRINKING WATER FOR 2 WK, Promoter: NONE USED
  tumour outcome (control, treated, inhibition, significance): 100%, 95%, 5%, not calculated
Carcinogen: N-BIS(2-HYDROXYPROPYL)NITROSAMINE, 53609-64-6, 0.8% IN DIET FOR 30 WK BEGINNING POST CARCINOGEN TREATMENT (STUDY DURATION: 32 WK), Species: RAT, Strain/Sex: F344/MALE, Target Tissue: Type of Lesion: LUNG: CARCINOMA, Dose [Carcinogen]: 0.1% IN DRINKING WATER FOR 2 WK, Promoter: NONE USED
  tumour outcome (control, treated, inhibition, significance): 45%, 20%, 56%, not calculated
Carcinogen: N-BIS(2-HYDROXYPROPYL)NITROSAMINE, 53609-64-6, 0.8% IN DIET FOR 30 WK BEGINNING POST CARCINOGEN TREATMENT (STUDY DURATION: 32 WK), Species: RAT, Strain/Sex: F344/MALE, Target Tissue: Type of Lesion: THYROID: ADENOMA, Dose [Carcinogen]: 0.1% IN DRINKING WATER FOR 2 WK, Promoter: NONE USED
  outcome: 5%, 5%, 0, not significant
Carcinogen: N-BIS(2-HYDROXYPROPYL)NITROSAMINE, 53609-64-6, 0.8% IN DIET FOR 30 WK BEGINNING POST CARCINOGEN TREATMENT (STUDY DURATION: 32 WK), Species: RAT, Strain/Sex: F344/MALE, Target Tissue: Type of Lesion: THYROID: CARCINOMA, Dose [Carcinogen]: 0.1% IN DRINKING WATER FOR 2 WK, Promoter: NONE USED
  tumour outcome (control, treated, inhibition, significance): 20%, 5%, 75%, not calculated
Carcinogen: N-NITROSOBIS(2-OXOPROPYL)AMINE, 60599-38-4, 0.75% IN DIET FOR 16 WK BEGINNING 2 WK POST CARCINOGEN TREATMENT (STUDY DURATION: 20 WK), Species: HAMSTER, Strain/Sex: SYRIAN/FEMALE, Target Tissue: Type of Lesion: GALL BLADDER: ADENOMA, Dose [Carcinogen]: 70 MG/KG IN SALINE FOLLOWED 2 WK LATER BY SECOND TREATMENT
  tumour outcome (control, treated, inhibition, significance): 9/18 (50%), 7/10 (70%), -40%, not calculated
Carcinogen: N-NITROSOBIS(2-OXOPROPYL)AMINE, 60599-38-4, 0.75% IN DIET FOR 16 WK BEGINNING 2 WK POST CARCINOGEN TREATMENT (STUDY DURATION: 20 WK), Species: HAMSTER, Strain/Sex: SYRIAN/FEMALE, Target Tissue: Type of Lesion: LIVER: CHOLANGIOCARCINOMA, Dose [Carcinogen]: 70 MG/KG IN SALINE FOLLOWED 2 WK LATER BY SECOND TREATMENT
  tumour outcome (control, treated, inhibition, significance): 16/18 (89%), 8/10 (80%), 10%, not calculated
Carcinogen: N-NITROSOBIS(2-OXOPROPYL)AMINE, 60599-38-4, 0.75% IN DIET FOR 16 WK BEGINNING 2 WK POST CARCINOGEN TREATMENT (STUDY DURATION: 20 WK), Species: HAMSTER, Strain/Sex: SYRIAN/FEMALE, Target Tissue: Type of Lesion: LIVER: NEOPLASTIC NODULE, Dose [Carcinogen]: 70 MG/KG IN SALINE FOLLOWED 2 WK LATER BY SECOND TREATMENT
  tumour outcome (control, treated, inhibition, significance): 18/18 (100%), 10/10 (100%), 0%, not significant
Carcinogen: N-NITROSOBIS(2-OXOPROPYL)AMINE, 60599-38-4, 0.75% IN DIET FOR 16 WK BEGINNING 2 WK POST CARCINOGEN TREATMENT (STUDY DURATION: 20 WK), Species: HAMSTER, Strain/Sex: SYRIAN/FEMALE, Target Tissue: Type of Lesion: PANCREAS: ADENOCARCINOMA, Dose [Carcinogen]: 70 MG/KG IN SALINE FOLLOWED 2 WK BY SECOND TREATMENT
  tumour outcome (control, treated, inhibition, significance): 14/18 (78%), 6/10 (60%), 23%, not calculated
Carcinogen: N-NITROSOBIS(2-OXOPROPYL)AMINE, 60599-38-4, 1.5% IN DIET FOR 16 WK BEGINNING 2 WK POST CARCINOGEN TREATMENT (STUDY DURATION: 20 WK), Species: HAMSTER, Strain/Sex: SYRIAN/FEMALE, Target Tissue: Type of Lesion: GALL BLADDER: ADENOMA, Dose [Carcinogen]: 70 MG/KG IN SALINE FOLLOWED 2 WK LATER BY SECOND TREATMENT
  tumour outcome (control, treated, inhibition, significance): 9/18 (50%), 10/17 (59%), -18%, not calculated
Carcinogen: N-NITROSOBIS(2-OXOPROPYL)AMINE, 60599-38-4, 1.5% IN DIET FOR 16 WK BEGINNING 2 WK POST CARCINOGEN TREATMENT (STUDY DURATION: 20 WK), Species: HAMSTER, Strain/Sex: SYRIAN/FEMALE, Target Tissue: Type of Lesion: GALL BLADDER: CARCINOMA, Dose [Carcinogen]: 70 MG/KG IN SALINE FOLLOWED 2 WK LATER BY SECOND TREATMENT
  tumour outcome (control, treated, inhibition, significance): 1/18 (6%), 2/17 (12%), -100%, not calculated
Carcinogen: N-NITROSOBIS(2-OXOPROPYL)AMINE, 60599-38-4, 1.5% IN DIET FOR 16 WK BEGINNING 2 WK POST CARCINOGEN TREATMENT (STUDY DURATION: 20 WK), Species: HAMSTER, Strain/Sex: SYRIAN/FEMALE, Target Tissue: Type of Lesion: LIVER: CHOLANGIOCARCINOMA, Dose [Carcinogen]: 70 MG/KG IN SALINE FOLLOWED 2 WK LATER BY SECOND TREATMENT
  tumour outcome (control, treated, inhibition, significance): 16/18 (89%), 11/17 (65%), 27%, not calculated
Carcinogen: N-NITROSOBIS(2-OXOPROPYL)AMINE, 60599-38-4, 1.5% IN DIET FOR 16 WK BEGINNING 2 WK POST CARCINOGEN TREATMENT (STUDY DURATION: 20 WK), Species: HAMSTER, Strain/Sex: SYRIAN/FEMALE, Target Tissue: Type of Lesion: LIVER: NEOPLASTIC NODULE, Dose [Carcinogen]: 70 MG/KG IN SALINE FOLLOWED 2 WK LATER BY SECOND TREATMENT
  tumour outcome (control, treated, inhibition, significance): 100%, 100%, 0%, not significant
Carcinogen: N-NITROSOBIS(2-OXOPROPYL)AMINE, 60599-38-4, 1.5% IN DIET FOR 16 WK BEGINNING 2 WK POST CARCINOGEN TREATMENT (STUDY DURATION: 20 WK), Species: HAMSTER, Strain/Sex: SYRIAN/FEMALE, Target Tissue: Type of Lesion: PANCREAS: ADENOCARCINOMA, Dose [Carcinogen]: 70 MG/KG IN SALINE FOLLOWED 2 WK LATER BY SECOND TREATMENT
  tumour outcome (control, treated, inhibition, significance): 14/18 (78%), 13/17 (76%), 3%, not calculated
